# Legend:
# Type in all cases: in vivo, human
# [1] = tested on: patients with a characterised depressive state; experiment: double-blind clinical study over 6 weeks compared with venlafaxine (Hamilton Scale of Depression, Leeds Sleep Evaluation Questionnaire)
# Experimental: Another study evaluating sleep improvement was carried out in patients with a characterised depressive state as a double blind over 6 weeks compared with venlafaxine. After one week placebo, 332 patients were randomised: 165 received 25 mg/day of agomelatine and 167 received 75 mg/day of venlafaxine for 2 weeks. After 2 weeks of treatment, if clinical improvements obtained were found insufficient, the doses for some patients were doubled to 50 mg/day of agomelatine or 150 mg/day of venlafaxine for the following weeks.
# [2] = tested on: patients with a characterised depressive state; experiment: pilot study of sleep polysomnographic parameters in 15 patients; settings: agomelatine 25 mg; polysomnography
# Experimental: Lastly, effects of agomelatine on the sleep polysomnographic parameters were evaluated in a pilot study carried out in 15 patients with a characterised depressive state. […] Furthermore, agomelatine increase the total duration of sleep, reduce the number of nocturnal wakenings, and as a consequence improve sleep efficacy.
# [3] = tested on: sleep disorders in the depressed patient; experiment: double-blind clinical study over 6 weeks in comparison with mirtazapine, polysomnographic recording of sleep; settings: 6 weeks of treatment
# From the text: The action specific to agomelatine on sleep disorders in the depressed patient is established in comparison with mirtazapine. This study, carried out as a double-blind over 6 weeks of treatment, has, as its principal criterion of efficacy, the polysomnographic recording of sleep. The Hamilton Scale of Depression allows the antidepressant efficacy to be documented.
# [4] = versus venlafaxine, p less than or equal to 0.001
smiles,measurement,setting,value
"COc1ccc2cccc(CCNC(C)=O)c2c1 [agomelatine, N-[2-(7-methoxy-1-naphthyl)ethyl]acetamide]",antidepressant efficacy (Hamilton Scale of Depression),"[1]; agomelatine 25 mg/day (up to 50 mg/day) versus venlafaxine 75 mg/day (up to 150 mg/day), 6 weeks",comparable efficacy of agomelatine versus venlafaxine
same,"""sensation of well-being""",[1]; [4],equally significant improvement
same,"""sleepiness during the day""",[1]; [4],equally significant improvement
same,"LSEQ item ""quality of sleep"" (QOS)","[1]; versus venlafaxine, p=0.015",appreciably greater efficacy
same,"LSEQ item ""ease of getting to sleep"" (GTS)","[1]; versus venlafaxine, significant difference from the first week (p=0.007), continuing during the 6 weeks",more important and faster to appear than for venlafaxine
same,REM (rapid eye movements) sleep,[2],without alteration
same,absolute and relative durations of cycles 3 and 4 of the recording of the electroencephalographic activity,[2],significantly improved
same,number of nocturnal wakenings,[2],reduce
same,onset of the beneficial effects on sleep,[2],from the first week of treatment
same,sleep efficacy,[2],improve
same,sleep physiological structure,[2],Restoration of the sleep physiological structure was observed
same,total duration of sleep,[2],increase
same,efficacy in the treatment of sleep disorders in the depressed patient (polysomnographic recording of sleep),[3],especially effective
